Legend:
[1] = test system: MOML-13 cell line; assay: Combination treatments, Cell Titer-Glo viability after 72 hours; format: cell-based, human; conditions: MOML-13
Method: (§1) The additional therapeutic agents for this example were azacitidine (Cayman Chemical Cat No. 11164), decitabine (Sigma Cat No. A3656) and venetoclax (InvivoChem Cat. No. V0001).
(§2) Cell Culture: Three human acute myeloid leukemia tumor cell lines were used in this study: HL60, MV4;11 and MOLM-13. HL60 and MV4;11 were grown in IMDM base media with 20% and 10% FBS, respectively. MOLM-13 was grown in RPMI 1640 base media with 20% FBS. All culture media contained 2 mM glutamine, 100 units/mL sodium penicillin G, […] gentamicin, and 100 μg/mL streptomycin sulfate. The tumor cells were cultured in tissue culture flasks in a humidified incubator at 37° C., in an atmosphere of 5% C02 and 95% air. Assay: Tumor cells were seeded in duplicate in a volume of 100 μL/well of media into 96-well micro-culture plates at initial densities low enough to allow for several population doublings (typically three to five) during the indicated incubation period. After a 24 hour incubation, test agents were added to each well. After 72 hours of culture with test articles, cell viability was determined using the Cell Titer-Glo® (Promega G7571) assay. Briefly, Cell Titer-Glo® (Promega G7571) reagents were equilibrated at room temperature for 30 minutes; 100 μL per well was added at endpoint (72 hours). Plates were gently shaken for two minutes and then incubated at room temperature for ten minutes prior to reading luminescence on the BMG Clariostar Plus microplate reader.
(§3) An IC50 ratio for each combination was calculated from the ratio of the combination IC50 as compared to the applicable no fixed agent (vehicle) control.

[2] = test system: MV4; 11 cell line; assay: as above; format: cell-based, human; conditions: MV4, 11
Method: as §1, §2, §3

[3] = test system: HL-60 cell line; assay: as above; format: cell-based, human; conditions: HL-60
Method: as §1, §2, §3

[4] = test system: CTG-2455; assay: Ex-vivo cytotoxicity by Cell Titer Glo; format: cell-based; conditions: Homo sapiens, 144 h; CTG-2455, 6 days
Method: (§4) Acute myelogenous leukemia (AML) is the most common acute leukemia in adults. A hematologic cancer, the disease is highly heterogeneous, with multiple subtypes. About 30% of AML cases harbor a FLT3/ITD mutation making the disease highly proliferative and more aggressive with a high risk of relapse.
(§5) Triplicate wells with media only and duplicate wells of vehicle (0.2% DMSO) were used as negative controls. […] To measure proliferation, untreated cells at days 0 and 6 were evaluated via Cell Titer Glo.
(§6) Protocol: • 1. AML cells were thawed and resuspended in enriched media composed of StemSpan™ Serum-Free Expansion Media (SFEM), 2% heat-inactivated FBS, StemSpan™ CC110 and recombinant human IL-3. • 2. 20,000 cells/well in 100 μL volume were plated on study day 0. • 3. […] Cells were incubated in the presence of drug for 6 days. • 5. On day 6, plates were removed from the incubator and equilibrated to room temperature for 20 minutes. 100 μL/well Cell Titer Glo was added to each well and incubated for 10 minutes before plate reading. • 6. Luminescence was recorded using Tecan Infinite M Plex plate reader.

[5] = test system: CTG-2502; assay: Ex-vivo cytotoxicity by Cell Titer Glo; format: cell-based; conditions: Homo sapiens, 144 h; CTG-2502, 6 days
Method: as §4, §5, §6

[6] = test system: CTG-2238; assay: Ex-vivo cytotoxicity by Cell Titer Glo; format: cell-based; conditions: Homo sapiens, 144 h; CTG-2238, 6 days
Method: as §4, §5, §6

[7] = test system: CTG-2700; assay: Ex-vivo cytotoxicity by Cell Titer Glo; format: cell-based; conditions: Homo sapiens, 144 h; CTG-2700, 6 days
Method: as §4, §5, §6

[8] = test system: CTG-2453; assay: Ex-vivo cytotoxicity by Cell Titer Glo; format: cell-based; conditions: Homo sapiens, 144 h; CTG-2453, 6 days
Method: as §4, §5, §6

[9] = test system: CTG-2242; assay: Ex-vivo cytotoxicity by Cell Titer Glo; format: cell-based; conditions: Homo sapiens, 144 h; CTG-2242, 6 days
Method: as §4, §5, §6

[10] = test system: CTG-2233; assay: Ex-vivo cytotoxicity by Cell Titer Glo; format: cell-based; conditions: Homo sapiens, 144 h; CTG-2233, 6 days
Method: as §4, §5, §6

[11] = test system: 30 passage 1 (P1) models of human acute myeloid leukemia; assay: Ex-vivo cytotoxicity by Cell Titer Glo, all models; format: cell-based; conditions: 144 h, single agent, 6 days, read-out: IC50s in these models
Method: as §4, §5, §6

[12] = Homo sapiens, 72 h, no fixed agent (vehicle), read-out: IC50
[13] = fixed agent Venetoclax+ Azacitidine - 20 nM

## Cc1cc2c(C(N)=O)cccc2n1-c1nc2c(c(NCc3ccccc3)n1)CCCN2 [Compound 1, 1-(4-(Benzylamino)-5,6,7,8-tetrahydropyrido[2,3-d]pyrimidin-2-yl)-2-methyl-1H-indole-4-carboxamide]
[1]; [12]
  IC50: 216 nM
[1]; fixed agent Azacitidine - 105 nM
  Combination: Monotherapy IC50 Ratio: 0.39
[1]; fixed agent Azacitidine - 850 nM
  Combination: Monotherapy IC50 Ratio: 0.39
[1]; fixed agent Decitabine - 2.5 nM
  Combination: Monotherapy IC50 Ratio: 0.56
[1]; fixed agent Decitabine - 8.5 nM
  Combination: Monotherapy IC50 Ratio: 0.30
[1]; fixed agent Venetoclax+ Azacitidine - 6.5 nM
  Combination: Monotherapy IC50 Ratio: 0.71
[1]; [13]
  Combination: Monotherapy IC50 Ratio: 0.52
[2]; [12]
  IC50: 251 nM
[2]; fixed agent Azacitidine - 500 nM
  Combination: Monotherapy IC50 Ratio: 0.46
[2]; fixed agent Azacitidine - 3150 nM
  Combination: Monotherapy IC50 Ratio: 0.47
[2]; fixed agent Decitabine - 30 nM
  Combination: Monotherapy IC50 Ratio: 0.47
[2]; fixed agent Decitabine - 215 nM
  Combination: Monotherapy IC50 Ratio: 0.36
[2]; [13]
  Combination: Monotherapy IC50 Ratio: 0.65
[2]; fixed agent Venetoclax+ Azacitidine - 50 nM
  Combination: Monotherapy IC50 Ratio: 0.47
[3]; fixed agent Azacitidine - 5750 nM
  Combination: Monotherapy IC50 Ratio: 1.02
[3]; fixed agent Azacitidine - 9800 nM
  Combination: Monotherapy IC50 Ratio: 0.85
[3]; fixed agent Decitabine - 175 nM
  Combination: Monotherapy IC50 Ratio: 0.96
[3]; fixed agent Decitabine - 1700 nM
  Combination: Monotherapy IC50 Ratio: 1.06
[3]; fixed agent Venetoclax+ Azacitidine - 85 nM
  Combination: Monotherapy IC50 Ratio: 0.84
[3]; fixed agent Venetoclax+ Azacitidine - 475 nM
  Combination: Monotherapy IC50 Ratio: 0.84
[3]; [12]
  IC50: 305 nM
[4]
  IC50: 220 nM
[5]
  IC50: 480 nM
[6]
  IC50: 237 nM
[7]
  IC50: 386 nM
[8]
  IC50: 307 nM
[9]
  IC50: 501 nM
[10]
  IC50: 412 nM
[11]
  IC50: 200 to 800 nM

Reference: patent US20230172936A1, “VCP/p97 INHIBITOR FOR THE TREATMENT OF CANCER” (Cleave Therapeutics, Inc., priority 2020, published 2023)
